Experimental data reported in patent US5631275A, “Substituted benzenesulfonylureas and -thioureas, preparation processes and possible uses of pharmaceutical preparations based on these compounds” (Hoechst Aktiengesellschaft, priority 1993, dated 1997).

Assays:
[1] = test system: papillary muscle of the guineapig; assay: Action potential duration on the papillary muscle of the guineapig; assay type: cell-based; conditions: test substance 2.2×10^-5 mol per liter, 30 minutes after the addition, control without test substance <40; for APD95 -HOE 234: action potential shortened by 1 μM rilmakalim (Hoe 234); for APD95 -DEO: action potential shortened by 2-deoxyglucose (DEO)
Description: ATP deficiency states such as are observed during ischemia in the cardiac muscle cell lead to a shortening of the duration of action potential. They are one of the causes of so-called reentry arrhythmias, which can cause sudden cardiac death. Opening of ATP-sensitive K channels by the reduction in ATP is a cause of this.
A standard microelectrode technique is used for measurement of the action potential. For this, guineapigs of both sexes are sacrificed by a blow to the head, the hearts are removed and the papillary muscles are separated out and suspended in an organ bath. The organ bath is flushed with Ringer solution (0.9% NaCl, 0.048% KCl, 0.024% CaCl2, 0.02% NaHCO3 and 0.1% glucose) and gassed with a mixture of 95% oxygen and 5% carbon dioxide at a temperature of 36° C. The muscle is stimulated via an electrode with rectangular pulses of 1 V and 1 ms duration and a frequency of 2 Hz. The action potential is conducted and recorded through a glass microelectrode, which is punctured intracellularly and filled with […] solution. The substances to be tested were added to the Ringer solution in a concentration of 2.2×10^-5 mol per liter. The action potential is shown in amplified form on an oscilloscope using a Hugo Sachs amplifier. The duration of the action potential is determined at a repolarization degree of 95% (APD95). Shortenings in action potential are caused either by addition of a 1 μM strength solution of the potassium channel opener rilmakalim (Hoe 234) [W. Linz, E. Klaus, U. Albus, R. H. A. Becker, D. Mania, H. C. Englert, B. A. Scholkens Arzneimittelforschung/Drug Research, Volume 42 (II), 1992, pages 1180-1185] or by addition of 2-deoxyglucose (DEO). ATP deficiency states are caused in experimental physiology by 2-deoxyglucose by blockade of glucose metabolism. The action potential-shortening effect of these substances was prevented or reduced by the simultaneous dose of the test substances. The test substances were added to the bath solution as stock solutions in propanediol. The values stated relate to measurements 30 minutes after the addition. The APD95 in the presence of DEO or HOE 234 and in the absence of the test substance serves as a control.

RINm5F cells = assay: Membrane potential on isolated β cells (RINm5F cells, whole cell patch clamp); assay type: cell-based; conditions: 10^-5 mol per liter, diazoxide (100 μmol) in bath, 34°±1° C., n = 6
Experimental: The action mechanism of hypoglycemic sulfonylureas is clarified in rough outlines. The β cells of the pancreas are the target organ, where increased secretion of the hypoglycemic hormone insulin occurs. The release of insulin is controlled by the cell membrane potential. Glihenclamide causes depolarization of the cell membrane, which promotes insulin release via an increased in-flow of calcium ions. The extent of this depolarization of the cell membrane ΔU was determined on RINm5F cells, a pancreas tumor cell line, for some of the compounds according to the invention. The action strength of a compound in this model predicts the extent of the hypoglycemic potential of this compound.
RINm5F cells were cultured at 37° C. in RPMI 1640 culture medium (flow), to which 11 mmol of glucose, 10% (volume/volume) of fetal calf serum, 2 mmol of glutamine and 50 μg/ml of gentamycin were added. For the studies, the cells were isolated by incubation (about 3 minutes) in a Ca^2+ -free medium containing 0.25% of trypsin and stored on ice.
Isolated RINm5F cells were introduced into a Plexiglas chamber on an inverse microscope fitted with a differential interference contrast lens. […] The cell potential was recorded in this whole cell configuration with the aid of a patch clamp amplifier (L/M EPC 7) and was measured by applying a potential ramp to the whole cell current. […]

Structure (SMILES)	APD95 -HOE 234 [1]	APD95 -DEO [1]	ΔU (depolarization of the cell membrane) (RINm5F cells)
CCC1=C(C)CN(C(=O)NCCc2ccc(OC)c(S(=O)(=O)NC(=O)NC)c2)C1=O [Example 2, 1-{2-Methoxy-5-[2-(3-ethyl-4-methyl-2-oxo-3-pyrrolinyl-1-carboxamido)-ethyl]-phenylsulfonyl-}3-methylurea]	125 ms	110 ms	12 mV
CCC1=C(C)CN(C(=O)NCCc2ccc(OC)c(S(=O)(=O)NC(=S)NC)c2)C1=O [Example 1, 1-{2-Methoxy-5-[2-(3-ethyl-4-methyl-2-oxo-3-pyrrolinyl-1-carboxamido)-ethyl]-phenylsulfonyl-}3-methylthiourea]	119 ± 16 ms	60 ± 22 ms	2 mV
